Results from patent US9211310B2, “Use of a Chinese medicine composition in preparing medicaments for treating secondary prevention of myocardial infarction” (TASLY PHARMACEUTICAL GROUP CO., LTD, priority 2010, dated 2015).

Test system: patients after acute myocardial infarction
Experiment: TCM symptom score, total and single (chest pain, chest tightness, short breath, fatigue, palpitation, spontaneous perspiration, pale complexion), same clinical trial
Assay type: in vivo, human
Design: total score of TCM symptom, Mean / total score of TCM symptom, Min / total score of TCM symptom, Max / total score of TCM symptom, Md / change of total score of TCM symptom, Mean / change of total score of TCM symptom, Max / change of total score of TCM symptom, Md: scale not given here
Settings: PP
Description: 3508 patients who were in accordance with the diagnostic standards of AMI for 28 days to 2 years and differentiated as Qi deficiency and blood stagnation syndrome by TCM were studied. 0.5 g Chinese medicine composition prepared by the method of EXAMPLE 1 (Coded as QSYQ) was administrated half an hour after meal, 3 times per day.
They included the overall survival time, angina pectoris score, TCM symptom score and life quality score, where angina pectoris score, TCM symptom score and life quality score were evaluated at randomization, in 1st, 3rd, 6th, 9th, 12th month after treatment and 18th month after follow-up.
The analysis method referred to the angina pectoris score.

[1] = 9 months after treatment-baseline
[2] = 12 months after treatment-baseline

SMILES: CC(=O)Oc1ccccc1C(=O)O [Control group, aspirine]
- change of spontaneous perspiration −2, percent of patients [1]: (0.43%)
- change of spontaneous perspiration −3, number of patients [1]: 0
- change of spontaneous perspiration −3, percent of patients [1]: (0.00%)
- change of total score of TCM symptom, Max [1]: 15.00
- change of total score of TCM symptom, Md [1]: −4.00
- change of total score of TCM symptom, Mean [1]: −5.04
- change of short breath 0, number of patients (12 months after treatment): 743
- distribution of total score of TCM symptom: Medium, number of patients (12 months after treatment): 229
- distribution of total score of TCM symptom: Medium, percentage of patients (12 months after treatment): (16.33%)
- distribution of total score of TCM symptom: Mild, number of patients (12 months after treatment): 1172
- distribution of total score of TCM symptom: Mild, percentage of patients (12 months after treatment): (83.59%)
- distribution of total score of TCM symptom: Severe, number of patients (12 months after treatment): 1
- distribution of total score of TCM symptom: Severe, percentage of patients (12 months after treatment): (0.07%)
- fatigue score 0, % of patients (12 months after treatment): (39.06%)
- fatigue score 0, number of patients (12 months after treatment): 548
- fatigue score 2, % of patients (12 months after treatment): (58.16%)
- fatigue score 2, number of patients (12 months after treatment): 816
- fatigue score 4, % of patients (12 months after treatment): (2.64%)
- fatigue score 4, number of patients (12 months after treatment): 37
- fatigue score 6, % of patients (12 months after treatment): (0.14%)
- fatigue score 6, number of patients (12 months after treatment): 2
- pale complexion score 0, number of patients (12 months after treatment): 870
- pale complexion score 0, percent of patients (12 months after treatment): (62.01%)
- pale complexion score 1, number of patients (12 months after treatment): 463
- pale complexion score 1, percent of patients (12 months after treatment): (33.00%)
- pale complexion score 2, number of patients (12 months after treatment): 63
- pale complexion score 2, percent of patients (12 months after treatment): (4.49%)
- pale complexion score 3, number of patients (12 months after treatment): 7
- pale complexion score 3, percent of patients (12 months after treatment): (0.50%)
- palpitation score 0, number of patients (12 months after treatment): 576
- palpitation score 0, percent of patients (12 months after treatment): (41.05%)
- palpitation score 2, number of patients (12 months after treatment): 745
- palpitation score 2, percent of patients (12 months after treatment): (53.10%)
- palpitation score 4, number of patients (12 months after treatment): 78
- palpitation score 4, percent of patients (12 months after treatment): (5.56%)
- palpitation score 6, number of patients (12 months after treatment): 4
- palpitation score 6, percent of patients (12 months after treatment): (0.29%)
- short breath score 0, % of patients (12 months after treatment): (33.36%)
- short breath score 0, number of patients (12 months after treatment): 468
- short breath score 3, % of patients (12 months after treatment): (58.45%)
- short breath score 3, number of patients (12 months after treatment): 820
- short breath score 6, % of patients (12 months after treatment): (8.20%)
- short breath score 6, number of patients (12 months after treatment): 115
- short breath score 9, % of patients (12 months after treatment): (0.00%)
- short breath score 9, number of patients (12 months after treatment): 0
- spontaneous perspiration score 0, number of patients (12 months after treatment): 730
- spontaneous perspiration score 0, percent of patients (12 months after treatment): (52.03%)
- spontaneous perspiration score 1, number of patients (12 months after treatment): 640
- spontaneous perspiration score 1, percent of patients (12 months after treatment): (45.62%)
- spontaneous perspiration score 2, number of patients (12 months after treatment): 31
- spontaneous perspiration score 2, percent of patients (12 months after treatment): (2.21%)
- spontaneous perspiration score 3, number of patients (12 months after treatment): 2
- spontaneous perspiration score 3, percent of patients (12 months after treatment): (0.14%)
- total score of TCM symptom, Max (12 months after treatment): 28.00
- total score of TCM symptom, Md (12 months after treatment): 7.00
- total score of TCM symptom, Mean (12 months after treatment): 7.81
- total score of TCM symptom, Min (12 months after treatment): 0.00
- change of fatigue 0, % of patients [2]: (44.10%)
- change of fatigue 0, number of patients [2]: 617
- change of fatigue 2, % of patients [2]: (38.03%)
- change of fatigue 2, number of patients [2]: 532
- change of fatigue 4, % of patients [2]: (10.51%)
- change of fatigue 4, number of patients [2]: 147
- change of fatigue 6, % of patients [2]: (1.64%)
- change of fatigue 6, number of patients [2]: 23
- change of fatigue −2, % of patients [2]: (5.43%)
- change of fatigue −2, number of patients [2]: 76
- change of fatigue −4, % of patients [2]: (0.29%)
- change of fatigue −4, number of patients [2]: 4
- change of pale complexion 0, number of patients [2]: 967
- change of pale complexion 0, percent of patients [2]: (69.22%)
- change of pale complexion 1, number of patients [2]: 393
- change of pale complexion 1, percent of patients [2]: (28.13%)
- change of pale complexion −1, number of patients [2]: 37
- change of pale complexion −1, percent of patients [2]: (2.65%)
- change of palpitation 0, number of patients [2]: 679
- change of palpitation 0, percent of patients [2]: (48.53%)
- change of palpitation 1, number of patients [2]: 536
- change of palpitation 1, percent of patients [2]: (38.31%)
- change of palpitation 2, number of patients [2]: 97
- change of palpitation 2, percent of patients [2]: (6.93%)
- change of palpitation 3, number of patients [2]: 6
- change of palpitation 3, percent of patients [2]: (0.43%)
- change of palpitation −1, number of patients [2]: 78
- change of palpitation −1, percent of patients [2]: (5.58%)
- change of palpitation −2, number of patients [2]: 3
- change of palpitation −2, percent of patients [2]: (0.21%)
- change of spontaneous perspiration 0, number of patients [2]: 647
- change of spontaneous perspiration 0, percent of patients [2]: (46.28%)
- change of spontaneous perspiration 1, number of patients [2]: 483
- change of spontaneous perspiration 1, percent of patients [2]: (34.55%)
- change of spontaneous perspiration 2, number of patients [2]: 128
- change of spontaneous perspiration 2, percent of patients [2]: (9.16%)
- change of spontaneous perspiration 3, number of patients [2]: 29
- change of spontaneous perspiration 3, percent of patients [2]: (2.07%)
- change of spontaneous perspiration −1, number of patients [2]: 103
- change of spontaneous perspiration −1, percent of patients [2]: (7.37%)
- change of spontaneous perspiration −2, number of patients [2]: 8
- change of spontaneous perspiration −2, percent of patients [2]: (0.57%)
- change of total score of TCM symptom, Max [2]: 18.00
- change of total score of TCM symptom, Md [2]: −5.00
- change of total score of TCM symptom, Mean [2]: −6.09
- change of total score of TCM symptom, Min [2]: −28.00
- distribution of total score of TCM symptom: Medium, number of patients (Baseline): 717
- distribution of total score of TCM symptom: Medium, percentage of patients (Baseline): (48.78%)
- distribution of total score of TCM symptom: Mild, number of patients (Baseline): 701
- distribution of total score of TCM symptom: Mild, percentage of patients (Baseline): (47.69%)
- distribution of total score of TCM symptom: Severe, number of patients (Baseline): 52
- distribution of total score of TCM symptom: Severe, percentage of patients (Baseline): (3.54%)
- fatigue score 0, % of patients (Baseline): (18.22%)
- fatigue score 0, number of patients (Baseline): 268
- fatigue score 2, % of patients (Baseline): (60.50%)
- fatigue score 2, number of patients (Baseline): 890
- fatigue score 4, % of patients (Baseline): (17.74%)
- fatigue score 4, number of patients (Baseline): 261
- fatigue score 6, % of patients (Baseline): (3.54%)
- fatigue score 6, number of patients (Baseline): 52
- pale complexion score 0, number of patients (Baseline): 494
- pale complexion score 0, percent of patients (Baseline): (33.61%)
- pale complexion score 1, number of patients (Baseline): 626
- pale complexion score 1, percent of patients (Baseline): (42.59%)
- pale complexion score 2, number of patients (Baseline): 293
- pale complexion score 2, percent of patients (Baseline): (19.93%)
- pale complexion score 3, number of patients (Baseline): 57
